{
  "source": "patent US12691151B2",
  "about": "“Methods and compositions for improving oncolytic virus infection for nonpermissive cancers” (Arizona Board of Regents on behalf of Arizona State …, priority 2019, dated 2026)",
  "system": "HT29 cells",
  "type": "cell-based, human",
  "note": "“Also recorded” adds a separate entry of the source.",
  "data": [
    {"smiles": "CCC(=C/[C@H](C)C/C=C/C(C)=C/[C@@H](C)C(=O)[C@@H](C)[C@H](O)[C@@H](C)C/C(C)=C/C(=O)O)/C=C/[C@@H]1OC(=O)C=C[C@@H]1C", "note": "[Leptomycin B]", "values": [
      {"measurement": "cell killing ability of MYXV", "result": "further enhanced the cell killing ability of MYXV"},
      {"measurement": "cell viability (ATP), Leptomycin B pretreatment plus MYXV", "result": "further reduced the viability; also recorded: reduced cell viability"},
      {"measurement": "cell viability (ATP)", "setting": "64 h", "result": "sensitive to Leptomycin B treatment alone"}
    ]}
  ]
}
